Experimental findings from PubChem BioAssay AID192 (DTP/NCI, 2004) are described below.

Where “and” joins values, the source holds several entries; their conditions need not be identical. Identical values can stand only once. Inconclusive results and toxic doses are left out.

The subject of this experiment is BDF1 mice, B16 melanoma ip, median survival T/C. Kind of experiment: NCI In Vivo Anticancer Drug Screen. Data for tumor model B16 Melanoma (intraperitoneal) in B6D2F1 (BDF1) mice. As to conditions: endpoint: median survival time, higher = longer survival. Put shortly:
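Tumor-bearing mice received test compound or vehicle. Survival or tumor size was then measured in both groups. The treated-group figure was divided by the control-group figure.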

Setting [1] is: dose: 100.0 mg/kg/injection, schedule: Q04DX003 (ip), vehicle: Klucel (hydroxypropylcellulose) (HPC).

Consider `O=C(O)c1c2c(nc3ccccc13)Cc1ccccc1-2`, for which the T/C (dose: 3.12 mg/kg/injection, schedule: Q01DX009 (ip), vehicle: Klucel (hydroxypropylcellulose) (HPC)) was 100 % of control; the T/C (dose: 6.25 mg/kg/injection, schedule: Q01DX009 (ip), vehicle: Klucel (hydroxypropylcellulose) (HPC)) is 96 % of control and 103 % of control; the T/C (dose: 6.25 mg/kg/injection, schedule: Q01DX009 (ip), vehicle: water) is 89 % of control; the T/C (dose: 12.5 mg/kg/injection, schedule: Q01DX009 (ip), vehicle: Klucel (hydroxypropylcellulose) (HPC)) was 98 % of control and 103 % of control and 119 % of control; the T/C (dose: 12.5 mg/kg/injection, schedule: Q01DX009 (ip), vehicle: water) is 96 % of control and 108 % of control; the T/C (dose: 25.0 mg/kg/injection, schedule: Q01DX009 (ip), vehicle: water) is 112 % of control and 114 % of control. In addition, the T/C is 96 % of control (dose: 30.0 mg/kg/injection, schedule: Q03HX008 (ip), vehicle: water); 107 % of control (dose: 30.0 mg/kg/injection, schedule: Q03HX016 (ip), vehicle: water); 101 % of control (dose: 30.0 mg/kg/injection, schedule: Q03HX024 (ip), vehicle: water); 102 % of control (dose: 44.0 mg/kg/injection, schedule: Q01DX005 (iv), vehicle: water); 120 % of control (dose: 44.0 mg/kg/injection, schedule: Q01DX009 (ip), vehicle: water); 102 % of control (dose: 44.0 mg/kg/injection, schedule: Q01DX009 (sc), vehicle: water). For the same compound, the T/C is, setting by setting: (dose: 44.0 mg/kg/injection, schedule: Q03HX008 (ip), vehicle: water) 118 % of control; (dose: 44.0 mg/kg/injection, schedule: Q03HX016 (ip), vehicle: water) 102 % of control; (dose: 44.0 mg/kg/injection, schedule: Q03HX024 (ip), vehicle: water) 118 % of control; (dose: 67.0 mg/kg/injection, schedule: Q01DX001 (ip), vehicle: water) 107 % of control; (dose: 67.0 mg/kg/injection, schedule: Q01DX005 (iv), vehicle: water) 92 % of control; (dose: 67.0 mg/kg/injection, schedule: Q01DX009 (ip), vehicle: water) 169 % of control. The T/C is 99 % of control (dose: 67.0 mg/kg/injection, schedule: Q01DX009 (oral), vehicle: water); 108 % of control (dose: 67.0 mg/kg/injection, schedule: Q01DX009 (sc), vehicle: water); 106 % of control (dose: 67.0 mg/kg/injection, schedule: Q03HX008 (ip), vehicle: water); 104 % of control (dose: 67.0 mg/kg/injection, schedule: Q03HX016 (ip), vehicle: water); 112 % of control (dose: 67.0 mg/kg/injection, schedule: Q03HX024 (ip), vehicle: water); 116 % of control (dose: 67.0 mg/kg/injection, schedule: Q04DX003 (ip), vehicle: water). Besides, the T/C (dose: 67.0 mg/kg/injection, schedule: Q08DX002 (ip), vehicle: water) was 106 % of control; the T/C (dose: 89.0 mg/kg/injection, schedule: Q01DX001 (ip), vehicle: Klucel (hydroxypropylcellulose) (HPC)) is 106 % of control; the T/C (dose: 100.0 mg/kg/injection, schedule: Q01DX001 (ip), vehicle: water) is 102 % of control; the T/C (dose: 100.0 mg/kg/injection, schedule: Q01DX001 (oral), vehicle: water) is 101 % of control; the T/C (dose: 100.0 mg/kg/injection, schedule: Q01DX005 (iv), vehicle: water) was 100 % of control; the T/C (dose: 100.0 mg/kg/injection, schedule: Q01DX009 (oral), vehicle: water) was 94 % of control. For the same compound, the T/C by setting is: (dose: 100.0 mg/kg/injection, schedule: Q01DX009 (sc), vehicle: water) 108 % of control; (dose: 100.0 mg/kg/injection, schedule: Q03HX008 (ip), vehicle: water) 120 % of control; (dose: 100.0 mg/kg/injection, schedule: Q03HX016 (ip), vehicle: water) 118 % of control; (dose: 100.0 mg/kg/injection, schedule: Q03HX024 (ip), vehicle: water) 112 % of control; (dose: 100.0 mg/kg/injection, schedule: Q04DX003 (ip), vehicle: water) 110 % of control; (dose: 100.0 mg/kg/injection, schedule: Q08DX002 (ip), vehicle: water) 113 % of control. Further, the T/C (dose: 133.0 mg/kg/injection, schedule: Q01DX009 (ip), vehicle: Klucel (hydroxypropylcellulose) (HPC)) is 156 % of control; the T/C (dose: 133.0 mg/kg/injection, schedule: Q04DX003 (ip), vehicle: Klucel (hydroxypropylcellulose) (HPC)) was 124 % of control; the T/C (dose: 150.0 mg/kg/injection, schedule: Q01DX001 (ip), vehicle: water) was 98 % of control and 104 % of control; the T/C (dose: 150.0 mg/kg/injection, schedule: Q01DX001 (oral), vehicle: water) was 98 % of control; the T/C (dose: 150.0 mg/kg/injection, schedule: Q01DX005 (iv), vehicle: water) was 102 % of control; the T/C (dose: 150.0 mg/kg/injection, schedule: Q01DX009 (oral), vehicle: water) is 90 % of control. The T/C was 115 % of control (dose: 150.0 mg/kg/injection, schedule: Q01DX009 (sc), vehicle: water); 121 % of control (dose: 150.0 mg/kg/injection, schedule: Q03HX008 (ip), vehicle: water); 108 % of control and 122 % of control (dose: 150.0 mg/kg/injection, schedule: Q04DX003 (ip), vehicle: water); 121 % of control (dose: 150.0 mg/kg/injection, schedule: Q08DX002 (ip), vehicle: water); 124 % of control (dose: 200.0 mg/kg/injection, schedule: Q01DX001 (ip), vehicle: Klucel (hydroxypropylcellulose) (HPC)); 152 % of control (dose: 200.0 mg/kg/injection, schedule: Q01DX009 (ip), vehicle: water). Further, the T/C is, setting by setting: (dose: 225.0 mg/kg/injection, schedule: Q01DX001 (ip), vehicle: water) 93 % of control and 110 % of control; (dose: 225.0 mg/kg/injection, schedule: Q01DX001 (oral), vehicle: water) 94 % of control; (dose: 225.0 mg/kg/injection, schedule: Q01DX005 (iv), vehicle: water) 104 % of control; (dose: 225.0 mg/kg/injection, schedule: Q01DX009 (oral), vehicle: water) 92 % of control; (dose: 225.0 mg/kg/injection, schedule: Q01DX009 (sc), vehicle: water) 104 % of control; (dose: 225.0 mg/kg/injection, schedule: Q04DX003 (ip), vehicle: water) 107 % of control and 111 % of control. Further, the T/C reads like this: (dose: 225.0 mg/kg/injection, schedule: Q08DX002 (ip), vehicle: water) 111 % of control; (dose: 337.0 mg/kg/injection, schedule: Q01DX001 (ip), vehicle: water) 98 % of control; (dose: 337.0 mg/kg/injection, schedule: Q01DX001 (oral), vehicle: water) 99 % of control; (dose: 337.0 mg/kg/injection, schedule: Q01DX009 (oral), vehicle: water) 97 % of control; (dose: 337.0 mg/kg/injection, schedule: Q04DX003 (ip), vehicle: water) 105 % of control and 112 % of control; (dose: 450.0 mg/kg/injection, schedule: Q01DX001 (ip), vehicle: Klucel (hydroxypropylcellulose) (HPC)) 111 % of control. For the same compound, the T/C (dose: 506.0 mg/kg/injection, schedule: Q01DX001 (oral), vehicle: water) is 93 % of control.

For `COc1ccc2c(oc(=O)c3c(Cl)nc(C)c(C)c32)c1OC`, the T/C (dose: 25.0 mg/kg/injection, schedule: Q01DX009 (ip), vehicle: Klucel (hydroxypropylcellulose) (HPC)) was 105 % of control; the T/C (dose: 50.0 mg/kg/injection, schedule: Q01DX009 (ip), vehicle: Klucel (hydroxypropylcellulose) (HPC)) was 98 % of control; the T/C (dose: 100.0 mg/kg/injection, schedule: Q01DX009 (ip), vehicle: Klucel (hydroxypropylcellulose) (HPC)) is 97 % of control; the T/C (dose: 200.0 mg/kg/injection, schedule: Q01DX009 (ip), vehicle: Klucel (hydroxypropylcellulose) (HPC)) is 94 % of control.

For `Cc1cccc(C)c1NC(=O)Nc1ccc2c(c1)OCO2`, the T/C under setting [1] is 92 % of control.

Turning to `CN=C(N)N/N=C(\C)c1ccc2oc3ccc(/C(C)=N/NC(N)=NC)cc3c2c1`, the T/C runs as follows: (dose: 12.5 mg/kg/injection, schedule: Q01DX009 (ip), vehicle: saline with Tween-80) 106 % of control; (dose: 25.0 mg/kg/injection, schedule: Q01DX009 (ip), vehicle: saline with Tween-80) 113 % of control; (dose: 50.0 mg/kg/injection, schedule: Q01DX009 (ip), vehicle: saline with Tween-80) 102 % of control.

`CCCCCCCCCCCCCCCCCCNC(=O)Nc1ccc(C(C)C)cc1`: the T/C is 86 % of control (dose: 25.0 mg/kg/injection, schedule: Q04DX003 (ip), vehicle: Klucel (hydroxypropylcellulose) (HPC)); 86 % of control and 89 % of control under setting [1].
